Source: ChEMBL document CHEMBL1159211, “Antifungal evaluation of pseudolaric acid B, a major constituent of Pseudolarix kaempferi” (J Nat Prod, 1995)
Calls of active or inactive are those of the source. The rule behind the calls is not given here.

Legend:
Bacillus subtilis = test: Antimicrobial activity against Bacillus subtilis at 1 mg/mL by agar-well diffusion assay; format: functional, organism-based
Candida albicans [1] = test: (§1) Antifungal activity against Candida albicans NIH B311 infected in mouse assessed as reduction in number of recovered colony-forming units assessed per mg of kidney at 3 mg/kg, ip administered 7 and 24 hrs after infection measured 16 hrs after final injection by tenfold serial dilution method relative to control; format: functional; set-up: scale not given: the % may be the effect or the level left; settings: route intraperitoneal
Pseudomonas aeruginosa = test: Antimicrobial activity against Pseudomonas aeruginosa at 1 mg/mL by agar-well diffusion assay; format: functional, organism-based
Cryptococcus neoformans = test: Antimicrobial activity against Cryptococcus neoformans at 1 mg/mL by agar-well diffusion assay; format: functional
Candida albicans [2] = test: Antimicrobial activity against Candida albicans at 1 mg/mL by agar-well diffusion assay; format: functional; settings: Candida albicans; read-out: IZ
Saccharomyces cerevisiae = test: Antimicrobial activity against Saccharomyces cerevisiae at 1 mg/mL by agar-well diffusion assay; format: functional, organism-based
Candida albicans [3] = test: as §1, with “at 20” for “at 3”; format: functional, organism-based; set-up: dose 20 mg/kg
Nannizzia gypsea = test: Antimicrobial activity against Microsporum gypseum at 1 mg/mL by agar-well diffusion assay; format: functional
Staphylococcus aureus = test: Antimicrobial activity against Staphylococcus aureus at 1 mg/mL by agar-well diffusion assay; format: functional, organism-based
Escherichia coli = test: Antimicrobial activity against Escherichia coli at 1 mg/mL by agar-well diffusion assay; format: functional, organism-based
Candida albicans [4] = test: as §1, with “mouse tissue-burden model” for “mouse”, “at 3.5” for “at 3”; format: functional; set-up: scale not given: the % may be the effect or the level left; settings: route intraperitoneal
[5] = system: Trichophyton mentagrophytes; test: Antimicrobial activity against Trichophyton mentagrophytes at 1 mg/mL by agar-well diffusion assay; format: functional
Candida albicans [6] = test: as §1, with “at 7” for “at 3”; format: functional; set-up: scale not given: the % may be the effect or the level left; settings: route intraperitoneal
[7] = system: Mycobacterium intracellulare; test: Antimicrobial activity against Mycobacterium intracellular at 1 mg/mL by agar-well diffusion assay; format: functional
Aspergillus fumigatus = test: Antimicrobial activity against Aspergillus fumigatus at 1 mg/mL by agar-well diffusion assay; format: functional
Aspergillus flavus = test: Antimicrobial activity against Aspergillus flavus at 1 mg/mL by agar-well diffusion assay; format: functional

## COC(=O)C1=CC[C@@]23CC[C@@H]([C@@](C)(/C=C/C=C(\C)C(=O)O[C@@H]4O[C@H](CO)[C@@H](O)[C@H](O)[C@H]4O)OC2=O)[C@@]3(OC(C)=O)CC1
Bacillus subtilis
  Activity: inactive
Candida albicans [1]
  Activity: 9.91%
Pseudomonas aeruginosa
  Activity: inactive
Cryptococcus neoformans
  Activity: inactive
Candida albicans [2]
  zone of inhibition at 1000 µg/mL: < 1 mm
Saccharomyces cerevisiae
  Activity: inactive
Candida albicans [3]
  Activity: inactive
Nannizzia gypsea
  Activity: inactive
Staphylococcus aureus
  Activity: inactive
Escherichia coli
  Activity: inactive
Candida albicans [4]
  Activity: 10%
[5]
  Activity: inactive
Candida albicans [6]
  Activity: 46.59%
[7]
  Activity: inactive
Aspergillus fumigatus
  Activity: inactive
Aspergillus flavus
  Activity: inactive
